Laboratory results: US20050267136A1, “Method of inhibiting dihydrofolate reductase; screening assay for the identification of novel therapeutics and their cellular targets” (McMaster University, priority 2003, published 2005)
In brackets after ≈: the same amount, converted by molar mass. Read-outs that look alike come from different tables or passages of the source.

Columns and labels:
[1] = test system: E. coli strain MC1061; experiment: Duplicate screen of 1000 Maybridge compounds for growth inhibition; type: cell-based, Escherichia coli; conditions: 10 μL of 1 mM compound in 200 μL/well, 36 hours at 37° C., OD 600 nm
Protocol: In addition to proof of principle work using well-characterized antibiotics a preliminary screen against a 1000 compound, non-proprietary commercial library from Maybridge (Cornwall, England) was also done. First the identification of compounds with activity against E. coli by screening for inhibition of growth was done. […] To each test well 10 μL of screening compound (1 mM in DMSO) was added and the plate incubated for 36 hours at 37° C. with shaking (150 rpm) before reading the optical density (600 nm). […] The result of this duplicate screen was the identification of 15 compounds with statistically significant antibacterial activity.

[2] = test system: E. coli strain MC1061; experiment: Retest minimum inhibitory concentration on LB-ST agar; conditions: Escherichia coli, MC1061, read-out: Retest Minimum Inhibitory Concentration
[3] = target: T1, E. coli DHFR (Escherichia coli, UniProt P0ABQ4); experiment: DHF reductase activity assay of recombinant E. coli DHFR (decrease of NADPH at 340 nm); primary screen and IC50 determination; type: biochemical; conditions: true competitive inhibitor should equal 2.8
T1 construct: The gene was cloned lacking a stop codon into NdeI and XhoI digested pET26b to form pET26b-folA; made in house

[4] = test system: E. coli MC1061; experiment: Minimum inhibitory concentration determination in LB broth; type: cell-based, Escherichia coli
[5] = target: T1, E. coli DHFR; experiment: Determination of kinetic inhibition constants; type: biochemical; conditions: NADPH 80 μM, dihydrofolate 10 to 300 μM, competitive inhibition
[6] = test system: E. coli MC1061 clones harboring pGEM7-acrB; type: cell-based, Escherichia coli; conditions: from MIC in LB-Str-Amp, relative to E. coli MC1061 containing pGEM7
[7] = test system: MC1061 transformed with the genomic library (the screening pool); type: cell-based, Escherichia coli; conditions: LB agar-ST; concentration lethal to MC1061
[8] = test system: E. coli MC1061/pGEM7; experiment: microbe, parasite or virus in culture; type: cell-based, Escherichia coli; conditions: for MIC: Escherichia coli, MC1061/PGEM7, read-out: MIC, minimum growth inhibitory concentration
[9] = test system: E. coli CW2553 containing pAK01 and pBAD18-folA (strain EB492); conditions: increasing DHFR expression from pBAD18-folA
[10] = test system: E. coli MC1061 harboring a multicopy genomic library cloned into pGEM7; experiment: Multicopy suppression selection with the selection pool, Example 5; type: cell-based, Escherichia coli; conditions: LB-Str-Amp agar, 10^5 cells
[11] = test system: S. cerevisiae DL1 (His, Leu, Ura)/pGAL; experiment: MIC of compounds versus yeast; type: cell-based; conditions: Saccharomyces cerevisiae; agar plates, 72 hours, read visually
[12] = Escherichia coli, MC1061, 16 hr at 37° C., OD600 less than 0.1, read-out: MIC
[13] = 16 hr at 37° C., OD600 less than 0.1

`Clc1ccc(Cc2n[nH]cc2Sc2ccc(Cl)cc2)cc1` [SPB04137] was tested. Which “Growth in Primary Screens, first value of the duplicate” value (“Growth in Primary Screens, first value” below) [1] did it give?
The value was 2.3%.

And the “Growth in Primary Screens, second value of the duplicate” value (“Growth in Primary Screens, second value” below) [1]?
The value was 2.1%.

And the MIC [2]?
The MIC was 500 µg/mL (≈ 1490 µM).

Which “Growth in Primary Screens, first value” value [1] does the source give for `Nc1nc(-c2ccc(-n3cccc3)cc2)cc(C(F)(F)F)n1` [BTB14887] here?
Its value is 37%.

What about the “Growth in Primary Screens, second value” value [1] of the same compound?
The value was 30%.

And the MIC [2]?
The MIC was 125 µg/mL (≈ 411 µM).

With `CC1CCc2c(N)nc(N)nc2C1` (stereo not drawn) [Compound 6] as the compound, how does the “IR, IC50 ratio (IC50 in the presence of 100 μM DHF) / (IC50 in the presence of 30 μM DHF)” value [3] read?
The value was 2.3.

And the MIC [4, 12]?
Its MIC is 64 µg/mL (≈ 359 µM).

And the Ki [5]?
Its Ki is 1100 nM.

What about the “fold suppression by pGEM7-acrB” value [6] of the same compound?
The value was 4 fold.

What does the source list for `C[C@@H]1O[C@@H]1P(=O)(O)O` [Fosfomycin]?
growth inhibitory concentration to which clones isolated from the screening pool were resistant [7]: 320 µg/mL; MIC [8]: 80 µg/mL (≈ 579 µM)

Which results are given for `Cc1ccc(Oc2cccc3nc(N)nc(N)c23)cc1` [Compound 4]?
MIC [4, 13]: 4.0 µg/mL (≈ 15 µM); MIC [4, 12]: 4 µg/mL (≈ 15 µM); dependence of the MIC on arabinose (inducer) concentration [9]: demonstrated an inducer dependence

With `CSC(=N)NC(=S)Nc1cccc(Cl)c1` [RJF01047] as the compound, how does the “Growth in Primary Screens, first value” value [1] read?
The value was 6.0%.

What about the “Growth in Primary Screens, second value” value [1] of the same compound?
The value was 12%.

And the MIC [2]?
Its MIC is 125 µg/mL (≈ 481 µM).

Which results are given for `COc1cc(Cc2cnc(N)nc2N)cc(OC)c1OC` [Trimethoprim]?
MIC [8]: 0.078 µg/mL (≈ 0.269 µM); MIC, minimum growth inhibitory concentration ([8]; LB agar containing ampicillin (50 μg/mL) and streptomycin (50 μg/mL)): 0.078 µg/mL (≈ 0.269 µM); concentration at which suppressor clones were evident [10]: 0.64 µg/mL; MIC [4, 12]: 0.03 µg/mL (≈ 0.103 µM)

For `Cc1ccc(Sc2cccc3nc(N)nc(N)c23)cc1` [Compound 1], which MIC [4, 12] is on record?
The MIC was 8 µg/mL (≈ 28.3 µM).

Which MIC [4, 13] does the source give for `Nc1nc(N)c2c(Sc3ccc(Cl)cc3)cccc2n1` [Compound 2] here?
The MIC was 4.0 µg/mL (≈ 13.2 µM).

What about the MIC [4, 12] of the same compound?
Its MIC is 4 µg/mL (≈ 13.2 µM).

What does the source list for `N[C@@H]1CON=C1O` [Cycloserine, D-cycloserine]?
growth inhibitory concentration to which clones isolated from the screening pool were resistant [7]: 160 µg/mL; MIC [8]: 80 µg/mL (≈ 784 µM)

With `N#CC(C#N)=NNc1cc(C(F)(F)F)cc(C(F)(F)F)c1` [SEW04978] as the compound, how does the “Growth in Primary Screens, first value” value [1] read?
Its value is 0.2%.

And the “Growth in Primary Screens, second value” value [1]?
Its value is 0.02%.

And the “growth inhibitory concentration to which clones isolated from the screening pool were resistant” value [7]?
The value was 64 µg/mL.

And the MIC [2]?
Its MIC is 32 µg/mL (≈ 105 µM).

For `OC(Cn1cncn1)(Cn1cncn1)c1ccc(F)cc1F` [Fluconazole], which MIC [11] is on record?
The MIC was 32 µg/mL.

Which “Growth in Primary Screens, first value” value [1] does the source give for `O=C(Oc1c(Cl)cc(Cl)c2cccnc12)c1cccs1` [RH00852] here?
Its value is 2.7%.

And the “Growth in Primary Screens, second value” value [1]?
Its value is 2.8%.

And the MIC [2]?
Its MIC is 16 µg/mL (≈ 49.4 µM).

How did the MIC [4, 12] turn out when `Nc1nc(N)c2c(Oc3ccc(F)cc3)cccc2n1` [Compound 3] was run?
Its MIC is 16 µg/mL (≈ 59.2 µM).
